Holding throughout (format): cell-based
In test [1] the target is T1, KCC2 (Rattus norvegicus, UniProt Q63633).
T1 construct: gene Slc12a5; KCC2b isoform expressed in T-REx-293 cells
T1 sequence (Q63633 43-1139 limits assumed): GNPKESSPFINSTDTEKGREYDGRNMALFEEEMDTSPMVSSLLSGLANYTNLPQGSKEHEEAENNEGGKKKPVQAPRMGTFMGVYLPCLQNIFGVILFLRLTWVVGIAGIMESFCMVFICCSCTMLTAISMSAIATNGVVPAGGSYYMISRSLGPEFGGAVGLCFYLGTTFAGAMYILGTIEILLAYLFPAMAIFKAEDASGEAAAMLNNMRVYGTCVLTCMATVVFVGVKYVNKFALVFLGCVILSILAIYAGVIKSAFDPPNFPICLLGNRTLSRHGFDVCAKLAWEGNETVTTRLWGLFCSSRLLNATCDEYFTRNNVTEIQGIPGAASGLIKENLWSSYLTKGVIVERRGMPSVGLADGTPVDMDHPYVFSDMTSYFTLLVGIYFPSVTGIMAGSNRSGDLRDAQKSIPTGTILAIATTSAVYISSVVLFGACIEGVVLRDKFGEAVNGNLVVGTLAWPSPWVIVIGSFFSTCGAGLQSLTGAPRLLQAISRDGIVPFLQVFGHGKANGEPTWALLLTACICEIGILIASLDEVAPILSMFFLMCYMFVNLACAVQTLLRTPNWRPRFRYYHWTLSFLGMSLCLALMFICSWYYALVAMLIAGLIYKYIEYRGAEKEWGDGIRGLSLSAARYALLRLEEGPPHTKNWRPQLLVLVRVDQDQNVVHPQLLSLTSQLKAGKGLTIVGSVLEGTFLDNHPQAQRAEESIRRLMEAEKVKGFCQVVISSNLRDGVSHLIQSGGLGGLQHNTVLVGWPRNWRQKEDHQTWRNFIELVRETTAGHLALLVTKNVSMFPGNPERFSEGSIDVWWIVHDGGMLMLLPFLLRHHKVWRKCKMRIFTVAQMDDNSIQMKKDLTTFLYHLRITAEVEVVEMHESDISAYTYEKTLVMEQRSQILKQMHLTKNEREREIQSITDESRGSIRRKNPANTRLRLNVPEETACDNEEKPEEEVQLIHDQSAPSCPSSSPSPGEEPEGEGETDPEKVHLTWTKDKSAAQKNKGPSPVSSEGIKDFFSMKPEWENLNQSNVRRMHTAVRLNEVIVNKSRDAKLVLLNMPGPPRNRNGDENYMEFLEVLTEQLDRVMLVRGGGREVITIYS
The test can be described thus: SuperClomeleon Cl- flux assay in HEK-293 with and without KCC2.

The target in test [2] is T1, KCC2. The test can be described thus: SuperClomeleon Cl- flux assay in HEK-293 with and without KCC2; Tl+ and […]+ influx.
The target in test [3] is T1, KCC2. The test can be described thus: SuperClomeleon Cl- flux assay in HEK-293 overexpressing KCC2.

In general, EC50 refers to the concentration needed to bring the measured effect to its halfway point. For the molecule `Cc1cccc2sc(N(CCN(C)C)C(=O)CCCS(=O)(=O)c3ccccc3)nc12` [VU0500458, N-(2-(Dimethylamino)Ethyl)-N-(4-Methylbenzo[d]Thiazol-2-yl)-4-(Phenylsulfonyl)Butanamide], the EC50 on KCC2 [1] worked out at 28.8 ± 4.2 µM.

On to `Cc1ccc(S(=O)(=O)CCCC(=O)N(CCN(C)C)c2nc3c(C)cccc3s2)cc1` [VU0500469, N-(2-(Dimethylamino)Ethyl)-N-(4-Methylbenzo[d]Thiazol-2-yl)-4-Tosylbutanamide], for which, at KCC2 [2], a half-maximal response (EC50) required 14.2 ± 0.7 µM. On KCC2 [3], `Cc1cccc2sc(N(CCN(C)C)C(=O)CCCS(=O)(=O)c3ccc(F)cc3)nc12` [VU0916219, N-(2-(Dimethylamino)Ethyl)-4-((4-Fluorophenyl)Sulfonyl)-N-(4-Methylbenzo[d]Thiazol-2-yl)Butanamide] displayed an EC50 of 17.1 ± 1.2 µM.

Values taken from paper PMC9263442, “Discovery of Small Molecule KCC2 Potentiators Which Attenuate In Vitro Seizure-Like Activity in Cultured Neurons” (Frontiers in Cell and Developmental Biology, 2022).
